Target: T1, dnHEM1 (synthetic construct, UniProt Z9V042XZY6)
T1 construct: de novo alpha-helical closed solenoid (toroid) from designed scaffold PDB 4YXX, redesigned with Rosetta, surface desymmetrized by K29W and K165Y (already part of dnHEM1); expressed in E. coli; monomer
T1 sequence (Z9V042XZY6 1-210): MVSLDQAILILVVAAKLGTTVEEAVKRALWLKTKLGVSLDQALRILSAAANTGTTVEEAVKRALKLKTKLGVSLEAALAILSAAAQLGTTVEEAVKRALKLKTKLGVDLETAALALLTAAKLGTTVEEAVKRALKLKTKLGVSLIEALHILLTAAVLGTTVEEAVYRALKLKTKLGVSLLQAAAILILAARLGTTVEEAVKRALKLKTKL
Experiment: UV/Vis titration of hemin into apo-protein, absorbance at […] nm
Format: binding

Kd: 2.5 ± 1.2 nM
SMILES: C=CC1=C(C)C2=Cc3c(C=C)c(C)c4[n]3[Fe]([Cl])[n]3c(c(C)c(CCC(=O)O)c3=CC3=NC(=C4)C(C)=C3CCC(=O)O)=CC1=N2 [hemin]

Source: article PMC10326885, “Design of Heme Enzymes with a Tunable Substrate Binding Pocket Adjacent to an Open Metal Coordination Site” (Journal of the American Chemical Society, 2023)
